# Laboratory results taken from patent US20260308158A1, “TARGETING RNAS ASSOCIATED WITH TAUOPATHIES WITH SMALL MOLECULES” (University of Florida Research Foundation, Incorporated, priority 2023, published 2026).
# Legend:
# WT SRE RNA = experiment: In vitro Chem-CLIP, WT SRE RNA; type: binding
# Procedure: (§1) In Vitro Chemical Cross-linking and Isolation by Pull Down (Chem-CLIP) and Competitive Chem-CLIP (C-Chem-CLIP). Growth medium [Dulbecco's modified eagle medium (DMEM; corning, 10-013-CM) with 1× Glutagro (corning)] and 10% (v/v) fetal bovine serum (FBS; Sigma, 12003C) was inactivated by heating at 95° C. for 15 min and slowly cooling to room temperature. Approximately 10,000 counts of 32P 5′-end labeled tau WT, DDPAC, WT+I17T, or DDPAC+I17T RNA were folded in 10 μL growth medium by heating at 65° C. for 5 min and slowly cooling to room temperature. Chem-CLIP probe 3 or negative control probe 4 was then added into the folded RNA in a total volume of 20 μL, and the mixtures were incubated at 37° C. for 1 h. For C-Chem-CLIP, dilutions of competing compound 2 were incubated with RNA for 30 min before adding 3. […]
# (§2) The Chem-CLIP probe 3 or control probe 4 was then clicked to disulfide biotin azide (2 μL of 10 mM solution prepared in DMSO solution per sample; Click Chemistry Tools, catalog no. 1168-10). […] The radioactive signal from bound RNAs (on the beads) and unbound RNAs (in the wash buffer) was measured by using a Beckman Coulter LS6500 Liquid Scintillation Counter as Rbound and Runbound. Enrichment was calculated as the percentage of radiolabeled RNA captured by beads calculated as Rbound/(Rbound+Runbound).
# DDPAC SRE RNA = experiment: In vitro Chem-CLIP, DDPAC SRE RNA; type: binding
# Procedure: as §1, §2
# WT I17T mutant RNA = experiment: In vitro Chem-CLIP, WT I17T RNA; type: binding; details: 50 μM
# Procedure: as §1, §2
# DDPAC I17T mutant RNA = experiment: In vitro Chem-CLIP, DDPAC I17T RNA; type: binding; details: 50 μM
# Procedure: as §1, §2
# [1] = test system: WT MAPT mini-gene pre-mRNA; experiment: Chem-CLIP / C-Chem-CLIP in HeLa cells transfected with WT mini-gene; type: cell-based; details: 3 at 1.5 μM, HeLa WT mini-gene
# Procedure: (§3) Measuring Cellular Occupancy by Chem-CLIP and C-Chem-CLIP. LAN5 cells were grown to ~80% confluency in 100 mm diameter dishes. HeLa cells were transfected as described in the Luciferase Reporter Assay to Study Exon 10 Alternative Splicing except they were re-plated in 100 mm diameter dishes and grown to ~80% confluency (~1 day). The cells were then treated with 1.5 μM of 3 or 4 for 12 h. For C-Chem-CLIP, dilutions of competing compounds 1 or 2 were pre-incubated with cells for 12 h prior to adding 3. After addition of 3, the cells were incubated for an additional 12 h. After the treatment period, whether for Chem-CLIP or C-Chem-CLIP studies, the cells were washed with 10 mL of 1×DPBS. Ice-cold 1×DPBS (10 mL) was then added to the plate followed by irradiation with 365 nm light in a UV Stratalinker 2400 (Stratagene). Cells were scraped with a cell scraper, transferred to a 15 mL conical vial, and collected by centrifugation. Total RNA was extracted using TRIzol LS Reagent (Invitrogen) per the manufacturer's protocol. […]
# (§4) RT-qPCR was performed on RNA samples before and after pull-down as described in Real-Time Quantitative PCR to enable calculation of fold enrichment in the pulled down samples. Relative fold enrichment of tau pre-mRNA was measured using Equation 3: […]
# [2] = test system: DDPAC MAPT mini-gene pre-mRNA; experiment: Chem-CLIP / C-Chem-CLIP in HeLa cells transfected with DDPAC mini-gene; type: cell-based; details: 3 at 1.5 μM, HeLa DDPAC mini-gene
# Procedure: as §3, §4
# [3] = test system: WT I17T MAPT mini-gene pre-mRNA; experiment: Chem-CLIP in HeLa cells transfected with WT I17T mini-gene; type: cell-based; details: 1.5 μM
# Procedure: as §3, §4
# [4] = test system: DDPAC I17T MAPT mini-gene pre-mRNA; experiment: Chem-CLIP in HeLa cells transfected with DDPAC I17T mini-gene; type: cell-based; details: 1.5 μM
# Procedure: as §3, §4
# [5] = test system: endogenous MAPT pre-mRNA in LAN5 cells; experiment: Chem-CLIP / C-Chem-CLIP in LAN5 cells; type: cell-based; details: 3 at 1.5 μM
# Procedure: as §3, §4
# [6] = test system: MAPT pre-mRNA in LAN5 cells; experiment: Chem-CLIP-Map-Seq in LAN5 cells; type: cell-based; details: 3 at 1.5 μM
# Procedure: Chem-CLIP-Map-Seq. Chem-CLIP-Map-Seq was performed as previously described.^32 Briefly, LAN5 cells were grown to ~80% confluency in 100 mm diameter dishes and treated with 1.5 μM of 3 for 12 h. Total RNA was extracted and pulled down as described in Measuring Cellular Occupancy by Chem-CLIP and C-Chem-CLIP. RT was carried out using 1 μg of RNA pulled down by 3, […] of a MAPT gene-specific primer (5′-[…] (SEQ ID NO: 7)), and SuperScript III (Invitrogen, 18080400) in a total volume of 10 μL per the manufacturer's protocol.
# After digestion with RNase A and RNase H (part of the Superscript III protocol), the cDNA from the RT reaction was cleaned up using RNA Clean XP beads (Beckman Coulter) according to the manufacturer's protocol. The purified cDNA was ligated to a 3′ ssDNA adaptor (5′-Phosphate-[…]-[…]-3C spacer (SEQ ID NO: 8)) by incubating 2 μL 10× T4 RNA Ligase Buffer, 1 μL of 1 mM ATP, 10 μL 50% (w/v) PEG 8000, 5 μL cDNA, 1 μL of 20 μM ssDNA adaptor, and 1 μL of T4 RNA Ligase [New England BioLabs, Inc. (NEB)]. The ligated cDNA was purified again with RNAClean XP beads as described above.
# PCR amplification was performed with the purified ligated cDNA by using Phusion polymerase (NEB) with cycling conditions of 98° C. for 30 s, 65° C. for 20 s, and 72° C. for 60 s and forward (5′-[…] (SEQ ID NO: 9)) and reverse (5′-[…] (SEQ ID NO: 10)) primers for 25 cycles. […]
# [7] = in vitro Chem-CLIP, read-out: IC50 for engaging and pull-down of RNA
smiles,measurement,setting,value
C#CCCC1(CCC(=O)NCCN(CCCc2cnc(N)cc2OC)CCCn2cnc3c4ccccc4n(C)c3c2=O)N=N1 [Compound 3],maximum percent pull-down,WT SRE RNA; 10 and 50 μM,~ 40%
same,IC50,WT SRE RNA; [7],~1000 nM
same,maximum percent pull-down,DDPAC SRE RNA; 10 and 50 μM,~ 40%
same,IC50,DDPAC SRE RNA; [7],~1000 nM
same,percent pull-down (engagement),WT I17T mutant RNA,15±0.9%
same,percent pull-down (engagement),DDPAC I17T mutant RNA,9±0.7%
same,enrichment of MAPT reporter,[1],3.9±0.1 fold
same,enrichment of MAPT reporter,[2],3.8±0.1 fold
same,enrichment of mutant reporter,[3],nor was enrichment observed
same,enrichment of mutant reporter,[4],nor was enrichment observed
same,enrichment of MAPT pre-mRNA,[5],3.6±0.2 fold
same,cross-linking site in MAPT RNA,[6],cross-linking occurred to the G in the 5′ CG closing base pair of the A-bulge
